Columns and labels:
[1] = water uptake from the air (hygroscopicity); assay type: physicochemical
[2] = storage stability of the crystal form; assay type: physicochemical; conditions: prolonged storage

**Q.** With `N#Cc1c(N2C[C@@H]3CCCN[C@@H]3C2)c(F)cc2c(=O)c(C(=O)O)cn(C3CC3)c12` [Pradofloxacin trihydrate, pradofloxacin trihydrate] as the compound, how does the “tendency to take up further water from the air” value [1] read?
**A.** does not show any tendency to take up further water from the air

**Q.** What about the “conversion to other crystal forms” value [2] of the same compound?
**A.** not converted to other crystal forms
